Reference: PMC12683216, “Using High‐Throughput Screening to Identify Crosslinking Peptides That Control Cell‐Mediated Matrix Degradation” (Advanced Healthcare Materials, 2025)
Where a SMILES comes first, the peptide text is derived from it. [ ]: non-standard residue; d: D form. βAla = NCCC(=O)O

Columns and labels:
[1] = test system: hUVECs; assay: Quantification of peptide and hydrogel degradation in cell-laden PEG hydrogels (Cy3/FAM fluorescence); format: in vitro ADME, human
Excerpt: (§1) Next we designed systems to quantify the amount of crosslinking peptide degradation and bulk hydrogel degradation during culture. We synthesized both the KLVAD‐LM peptide and the PanMMP peptide with an N‐terminal Cy3 and a C‐terminal azide to click into the PEG hydrogel network, and also coupled fluorescein (FAM) to the hydrogel using a non‐degradable linker (Figure 5A). Proteolytic cleavage of the crosslinking peptides will liberate the Cy3 from the PEG hydrogel, and bulk erosion of the hydrogel reduces the amount of PEG and FAM. At desired time points, the gels were completely degraded with trypsin, and the fluorescence intensity of Cy3 and FAM was measured to quantify peptide and hydrogel degradation during culture (Figure 5B).
(§2) Figure 5 The rate of degradation of crosslinking peptides in the hydrogels was quantified using fluorescence. A) A fraction of PEG arms were functionalized with PanMMP and KLVAD‐LM peptides that were labeled with […] on their N‐terminus and conjugated to the PEG hydrogel matrix on their C‐terminus to quantify crosslinker degradation. Fluorescein (FAM) was also conjugated to the hydrogel through non‐degradable linkers to quantify bulk hydrogel degradation. […] The amounts of remaining Cy3 and FAM were quantified using fluorescence spectroscopy. […]

[2] = test system: hMSCs; assay: as above; format: in vitro ADME, human
Excerpt: as §1, §2

[3] = biological target: T1, recombinant MMP‐14 (Homo sapiens, UniProt P50281); assay: Peptide degradation with added exogenous recombinant MMP-14 (LC-MS); format: in vitro ADME; conditions: fresh cell culture media (both hMSC and hUVEC media), no cell contact, recombinant MMP-14 0.5 nM, 24 h, LC-MS
T1 construct: purchased antibodies.com
Experimental: To verify that MMP‐14 can degrade the KLVAD‐LM and PanMMP peptides, recombinant MMP‐14 was added to the different peptides, both in PBS and in the Cell and Media culture conditions (Figure 7 ). Peptides were incubated under three conditions: in fresh cell culture media (“Blank”), in media with cells present (“Cells”), and in cell‐conditioned media (“Media”). This was done for both hMSCs and hUVECs, and was also done with and without the addition of exogenous MMP.
The extent of peptide degradation was quantified for samples both with and without the addition of exogenous MMP‐14. […] Error bars indicate ± standard deviation, N = 3 with technical triplicates.
hUVECs (75000 per well) or hMSCs (36000 per well) were seeded into a 48 well plate, and 500 µL media was added to the wells. […] The peptide libraries were dissolved at a stock solution of 10 mM total peptide content. For libraries containing 38 peptides, 95 µL of the stock solution was added to each well; for libraries with 19 peptides, 47.5 µL was added to each well, and media was taken at 0 and 24 h. Add 4 µL of acetic acid to all collected media in the LC‐MS plates and store them in a −80 °C freezer to prevent further proteolytic degradation. From each sample, 10 µL of crude solution was introduced by the LC‐MS through a Thermo Scientific Vanquish LC System (Thermo Fisher Scientific), which outputted to a Thermo Scientific LTQ XL Linear Ion Trap Mass Spectrometer (Thermo Fisher Scientific). The sampled mixture was trapped on a column (ProntoSIL C18 AQ, 120 Å, 3 µm, 2.0 x 50 mm HPLC Column, PN 0502F184PS030, MAC‐MOD Analytical Inc.). The samples were loaded onto the column with a solvent containing acetonitrile/water, 5:95 (v/v) containing 1% acetic acid at a flow rate of 300 µL min^−1 and held for 1 min. The sample was then eluted from the column with a linear gradient of 5–40% Solvent B (1% acetic acid in acetonitrile) at the same flow rate for 5 min. This was followed by a 1 min ramp up to 100% Solvent B, where it was re‐equilibrated with Solvent A (1% acetic acid) to 5% solvent B over the course of 1 min and held there for 2 min. The column temperature was kept at a constant 29 °C, and the mass spectrometer was operated in positive ion mode. Using a Heated ESI, the Source Voltage was set to 4.1 kV, and the capillary temperature was 350 °C. For non‐library degradation studies, 2.5 µL of 10 mM peptide stock solution for each peptide was added.
To assess the activity of the conditioned media, the media were divided into two equal portions. One portion was used for a standard degradation study, while the other was cultured for an additional 24 h before the PanMMP and KLVADLMASAE were added. After 24 h of incubation, the media were collected for further analysis. To assess the impact of recombinant MMP‐14 on PanMMP and KLVADLMASAE, recombinant MMP‐14 (antibodies.com) was dissolved in the media at a concentration of 0.5 nM. The remaining steps followed the standard degradation study protocol.
For all degradation studies using soluble peptides, a non‐proteolytically degradable NH2‐βFβAβAβAβAβAβA‐amide (βFβA6) peptide, where βF is β‐phenylalanine and βA is β‐alanine, was added at a 50 µM concentration and used as an internal standard. Peptide degradation ratios were measured by LC‐MS and analyzed by Xcalibur. The relative concentrations of the peptide were calculated by the ratio of the peak area of the peptide and the peak area of βFβA6.

SMILES: CSCC[C@H](NC(=O)[C@H](CC(C)C)NC(=O)[C@H](CC(=O)O)NC(=O)[C@H](C)NC(=O)[C@@H](NC(=O)[C@H](CC(C)C)NC(=O)[C@H](CCCCN)NC(=O)CCNC(C)=O)C(C)C)C(=O)N[C@@H](C)C(=O)N[C@@H](CO)C(=O)N[C@@H](C)C(=O)N[C@@H](CCC(=O)O)C(=O)NCCC(N)=O [KLVAD-LM] (Ac-[βAla]KLVADLMASAE[βAla]-NH2)
- degradation within hydrogels relative to that seen with the PanMMP peptide, hUVECs [1]: 40–60%
- degradation within hydrogels relative to that seen with the PanMMP peptide, hMSCs [2]: 40–60%

SMILES: CC[C@H](C)[C@H](NC(=O)CNC(=O)[C@H](CCC(N)=O)NC(=O)[C@@H]1CCCN1C(=O)CNC(=O)CCNC(C)=O)C(=O)N[C@@H](Cc1c[nH]c2ccccc12)C(=O)NCC(=O)N[C@@H](CCC(N)=O)C(=O)NCCC(N)=O [PanMMP, reference compound] (Ac-[βAla]GPQGIWGQ[βAla]-NH2)
- degradation on adding MMP‐14 to the Blank condition [3]: 10–20%
